The text below walks through data of US9714245B2, “Carboline compounds usable in the treatment of neurodegenerative diseases” (ALZPROTECT, priority 2013, dated 2017).

Data set [1] has as its system secreted Aβ1-40. Put plainly: Aβ1-40 secretion by APP-transfected neuroblastoma cells (ELISA). The conditions noted are these: Homo sapiens, Neuroblastoma cell; SKNSH-SYSY APPWT cells; concentration decreasing secreted Aβ1-40 to 50% of basal amount. It counts as cell-based. The method, then:
(§1) Cell Cultures and Transfections to Test Activity on Aβ1-40 and Aβ1-42 Secretion
(§2) Human neuroblastoma cell line SKNSH-SYSY (ATCC® Catalog No. CRL-2266™), HEK (ATCC® CRL-1573™) and COS-1 (ATCC® CRL-1650™) cells were maintained in Dulbecco's modified Eagle medium (DMEM, GIBCO BRL) supplemented with 10% fetal calf serum, 2 mM L-glutamine, 1 mM non-essential amino acids, 50 units/ml penicillin/streptomycin (Invitrogen, France) in a 5% CO2 humidified incubator at 37° C. APP695 cDNA was subcloned into eukaryotic expression vector pcDNA3 (Invitrogen), allowing for a G418 (Invitrogen) selection of clones. This APP cDNA coding for the 695 amino acid long isoform was transfected into SKNSH-SYSY cells using the ethyleneimine polymer ExGen 500 (Euromedex) according to the manufacturer's instructions. The cells expressing APP (SKNSH-SYSY APP^WT) were selected by the addition of 200 μg/ml G418 in the cell medium. To quantify AR which released in the cell culture medium, the collected medium was spun at 200×g to eliminate the cell debris. The concentrations of secreted Aâ1-40 and Aβ1-42 were determined using the Human Aβ (1-40) Assay Kit (IBL) or the INNOTEST™ beta-Amyloid (1-42) ELISA Kit (Innogenetics), according to manufacturer's instructions. The results were expressed as IC50, i.e. the concentration able to decrease to 50% the basal amount of secreted Aβ peptide 1-40 and 1-42.
In general terms: An ELISA detects its analyte on a solid surface through an enzyme-linked reagent.

In data set [2] the test system is CTFα. Put plainly: Quantification of APP-CTFα by Western blot in SY5Y-APPWT cells. It counts as cell-based, Human. The settings on record: compared to a control with a value of 100. The protocol:
(§3) Quantifications of APP-CTFs and AICD
(§4) After treatment, SY5Y-APP^WT cells were scrapped and lysed in 1× Lysis Buffer (250 mM NaCl, 50 mM Tris, pH 8.8, 5 mM EDTA, 2.5% Triton X-100, 1% Deoxycholate, 0.1% SDS). For the Western blotting, an equal amount of total proteins (20 μg/lane) was loaded on a 16.5% Tris-Tricine or 8-16% Tris-Glycine polyacrylamide gel.
(§5) SDS-polyacrylamide gel electrophoresis (PAGE) was performed using the Criterion™ Tris-Tricine-precast or Bis-Tris-precast criterion gels (Bio-Rad Bioresearch division). Proteins were transferred to a […] nitrocellulose membrane (Hybond, Amersham Biosciences) at 2.5 mA/cm2 per gel using the Criterion™ Blotter system (Amersham Biosciences), according to the manufacturer's instructions. Proteins were reversibly stained with Ponceau Red in order to check the quality of the transfer of protein. The membranes were blocked in 25 mM Tris-HCl pH 8.0, 150 mM NaCl, 0.1% Tween-20 (v/v) and 5% (w/v) of skimmed milk for 30 min. Membranes were incubated overnight at 4° C. with appropriate dilution of the primary antibodies, and were incubated for 1 h at room temperature with secondary antibody. […] Quantifications were calculated with Image J software (NIH) and the data were collected using Excel Software (Microsoft). The loading variations between Western blot lanes were normalized according to the tubulin signal. Quantification of CTFα and AICD were compared to control conditions (considered as 100 in arbitrary units) and are presented for two concentrations of the drug: 1 and 10 μM.
For orientation: Immunoblotting shows a protein as a band on a membrane.

In data set [3] the test system is sAPPα. The data set can be described thus: Soluble APPα quantification (ELISA). It counts as cell-based, Human. The settings on record: 24 h, control considered as 100. The protocol:
Soluble APPα Quantification
Human neuroblastoma cell line SKNSH-SYSY APP′ was cultured in Dulbecco's modified Eagle medium (Invitrogen) supplemented with 10% fetal calf serum (PAA), 2 mM L-glutamine (Invitrogen), 1 mM non-essential amino acids (Invitrogen), 50 units/ml penicillin/streptomycin (Invitrogen), and 200 μg G418=geneticin (Invitrogen) (selection for cell expressing APP) in a 5% CO2 humidified incubator at 37° C. Cells were counted and seed at 400000 cells/well into a 12-wells plate for 24 h. The day after, cells were treated with 700 μL/well of drug at 0.3; 1; 3 and 10 μM and incubated for 24 h in a 5% CO2 incubator at 37° C. After treatment, culture medium samples were collected and stored at −80° C. until analysis. Samples corresponding to the 1 and 10 μM treatment were centrifuged 1500 rpm for 5 min at 4° C. sAPPα quantification by ELISA was done with Human sAPPα Assay Kit-IBL (Cat#27734) in accordance with manufacturer's protocol. Samples were diluted at 1:150 in the diluent buffer provided in the kit. Each sample was loaded in duplicate onto the 96 well-plate. Results are expressed in ng/ml and then compared to control conditions (considered as 100 in arbitrary units) and are presented for two concentrations of the drug: 1 and 10 μM.

Data set [4] can be described thus: Cytotoxicity evaluation (MTS assay). It counts as cell-based, Human. The settings on record: human, SY5Y-APPWT neuroblastoma cells (expressing APP); SY5Y-APPWT cells, 24 h treatment, MTS. The protocol: Human neuroblastoma cell line SY5Y-APP^WT was used to assess the cytotoxic effects of each compound. SY5Y-APP^WT cells were seeded at 20000 cells/well onto 96-well plates and were cultured in Dulbecco's modified Eagle medium (DMEM, Invitrogen) supplemented with 10% fetal calf serum (PAA), 2 mM L-glutamine (Invitrogen), 1 mM non-essential amino acids (Invitrogen), 50 units/ml penicillin/streptomycin (Invitrogen), and 200 μg G418=geneticin (Invitrogen) (selection for cells expressing APP) in a 5% CO2 humidified incubator at 37° C. After 24 h, the cells were washed and incubated with the compound at 0.1; 0.3; 1; 3; 10; 30 and 100 μM or with DMSO as control diluted in the same culture medium at 37° C. in 5% CO2. After 24 h of treatment, cytotoxicity was determined by using colorimetric MTS assay (CellTiter 96® Aqueous One Solution Cell Proliferation Assay-MTS Promega) according to the protocol of the manufacturer. Absorbance was read at 490 nm and results were expressed as % from control condition considered as 100%.
Background: Formazan colour is commonly taken as a measure of viable cells.

Data set [5] relates to AICD. Put plainly: Quantification of AICD by Western blot in SY5Y-APPWT cells. It counts as cell-based, Human. The settings on record: compared to a control with a value of 100. The method, then: as §3, §4, §5
In data set [6] the test system is secreted Aβ1-42. Put plainly: Aβ1-42 secretion by APP-transfected neuroblastoma cells (ELISA). It counts as cell-based. The conditions noted are these: Homo sapiens, Neuroblastoma cell; SKNSH-SYSY APPWT cells; concentration decreasing secreted Aβ1-42 to 50% of basal amount. The method, then: as §1, §2

Usually IC50 stands for the point on the concentration scale where inhibition reaches its midpoint. Low readings indicate greater potency, high ones weaker potency. One may read the CC50 as the concentration at which the toxic effect on the cells reaches its halfway point. Read a high CC50 as lower toxicity to the cells. Turning to `CC(C)CN(CCCN1CCN(CCCN2CCc3[nH]c4ccc(F)cc4c3C2)CC1)CC(C)C` [Compound 3.1d, N,N-diisobutyl-3-(4-(3-(8-fluoro-1,3,4,5-tetrahydro-1H-pyrido[4,3-b]indol-2-yl)propyl)piperazin-1-yl)propylamine], the half-maximal inhibitory concentration (IC50) came to 1.2 µM in data set [1] and 2.1 µM in data set [6]. For the same molecule, in data set [2], the “CTFα (10 μM)” value worked out at 1011 arbitrary units. Further, the “sAPPα (10 μM)” value in data set [3] was 166 arbitrary units. The CC50 at 24 h in data set [4] amounted to 15 µM. The “AICD (10 μM)” value in data set [5] worked out at 84225 arbitrary units.
